{"source": "patent US11584732B2", "about": "“Methods of treatment using 4-(3-cyanophenyl)-6-pyridinylpyrimidine mGlu5 modulators” (Heptares Therapeutics Limited, priority 2013, dated 2023)", "tested_on": "CD-1 mice", "test": "In vivo efficacy test - marble burying", "parameters": "species or system mouse", "conditions": "male CD-1 mice, po, 30 min prior to test; at a dose of 10 and 30 mg/kg versus vehicle group", "data": [{"compound": "N#Cc1cc(Cl)cc(-c2cc(-c3ccc(F)cn3)ncn2)c1", "note": "[Example 17, 3-chloro-5-[6-(5-fluoropyridin-2-yl)pyrimidin-4-yl]benzonitrile]", "values": [{"measurement": "number of marbles buried", "value": "statistically significant decrease"}]}]}
